Laboratory results taken from patent US11771123B2, “Methods for treating biomass to produce oligosaccharides and related compositions” (Cambridge Glycoscience Ltd, priority 2019, dated 2023).

Key:
[1] = Flow characteristics: timed flow from a vertically stood syringe under gravity; format: physicochemical; conditions: syringe filled with 20 mL test liquid, room temperature
Protocol: The glucose solutions were made by weighing 6, 12, 18, and 24 g D-glucose respectively and making up with 90° C. water to 30 mL. The flow characteristics were measured by timing the flow rate of 5 mL, and where suitable, 20 mL of the liquids from a vertically stood syringe (BD Plastipak 300613) filled with 20 mL of test liquid under gravity at room temperature.
Sample were analyzed for flow characteristics as described in Example 9.

[2] = Glaze formation: dried on glass plate and scored with a knife; format: physicochemical; conditions: cellobiose alone, 10-320 mM, dried at 37° C.
Protocol: 100 μl of 10-320 mM (10, 20, 40, 80, 160, and 320 mM) cellobiose±1% w/v birchwood xylan was pipetted onto a glass plate. • 2. Samples were dried at 37° C. • 3. Samples were scored with a knife to test whether or not the ingredient settled into a solid glaze. […] With a cellobiose concentration of 160 mM or higher (5.5% w/v, or 550% w/w as compared with xylan) the morphology of the glaze reverted to that without xylan present.

| SMILES | Time for 5 mL flow [1] [s] | Time for 20 mL flow [1] [s] | Glaze formation [2] |
| --- | --- | --- | --- |
| O=C[C@H](O)[C@@H](O)[C@H](O)[C@H](O)CO [80% w/v glucose, D-glucose] | 5 | 38 |  |
| O=C[C@H](O)[C@@H](O)[C@H](O)[C@H](O)CO [60% w/v glucose, D-glucose] | 3 | 20 |  |
| O=C[C@H](O)[C@@H](O)[C@H](O[C@@H]1O[C@H](CO)[C@@H](O)[C@H](O)[C@H]1O)[C@H](O)CO [cellobiose] |  |  | no firm glaze was formed |

Next, values leading:

| Time for 5 mL flow [1] [s] | Time for 20 mL flow [1] [s] | Glaze formation [2] | SMILES |
| --- | --- | --- | --- |
| 2.5 | 15 |  | O=C[C@H](O)[C@@H](O)[C@H](O)[C@H](O)CO [40% w/v glucose, D-glucose] |
| 2.3 | 13.5 |  | O=C[C@H](O)[C@@H](O)[C@H](O)[C@H](O)CO [20% w/v glucose, D-glucose] |
